ChEMBL document CHEMBL3603765, “Targeting Drug Resistance in EGFR with Covalent Inhibitors: A Structure-Based Design Approach” (J Med Chem, 2015)
In brackets after ≈: the same amount, converted by molar mass. Activity calls are given as the source filed them. No cut-off for these calls is given here.

Assays:
[1] = target: Epidermal growth factor receptor (Homo sapiens, UniProt P00533); test: Inhibition of wild type EGFR (unknown origin) expressed in Sf9 cells pre-incubated for 30 mins before substrate and ATP addition by homogeneous time-resolved FRET assay
[2] = system: Epidermal growth factor receptor (Homo sapiens), P00533 [T790M]; test: Binding affinity to EGFR T790M mutant (unknown origin) expressed in Sf9 cells by ESI-MS method
[3] = system: Epidermal growth factor receptor (Homo sapiens), P00533 [T790M]; test: Binding affinity to EGFR T790M mutant (unknown origin) expressed in Sf9 cells assessed as covalent modification at Cys797 residue nano-LC-MS/MS method
[4] = target: Proto-oncogene tyrosine-protein kinase Src (Homo sapiens, UniProt P12931, T341M); test: Inhibition of cSrc T338M mutant (unknown origin) pre-incubated for 30 mins before substrate and ATP addition by HTRF assay
[5] = target: Proto-oncogene tyrosine-protein kinase Src (Homo sapiens, UniProt P12931, S348C/T341M); test: Inhibition of cSrc T338M/S345C mutant (unknown origin) pre-incubated for 30 mins before substrate and ATP addition by HTRF assay
[6] = organism: Homo sapiens; test: Selectivity index, ratio of IC50 for cSrc T338M mutant (unknown origin) to IC50 for cSrc T338M/S345C mutant (unknown origin)
[7] = target: T1, Epidermal growth factor receptor (Homo sapiens, UniProt P00533, L858R); test: Inhibition of EGFR L858R mutant (unknown origin) expressed in Sf9 cells by enzyme kinetics assay
[8] = target: T2, Epidermal growth factor receptor (Homo sapiens, UniProt P00533, L858R/T790M); test: Inhibition of EGFR L858R/T790M mutant (unknown origin) expressed in Sf9 cells by enzyme kinetics assay
[9] = system: Epidermal growth factor receptor (Homo sapiens), P00533 [L858R]; test: Inhibition of EGFR L858R mutant (unknown origin) expressed in Sf9 cells assessed as enzyme inactivation constant by enzyme kinetics assay
[10] = system: Epidermal growth factor receptor (Homo sapiens), P00533 [L858R,T790M]; test: Inhibition of EGFR L858R/T790M mutant (unknown origin) expressed in Sf9 cells assessed as enzyme inactivation constant by enzyme kinetics assay
[11] = system: A-431; test: Growth inhibition of human A431 cells incubated for 96 hrs by cell-titer Glo reagent based assay; assay type: functional; conditions: A-431, 96 h
[12] = Growth inhibition of human HCC827 cells with exon 19 deletion and delE746-A750 incubated for 96 hrs by cell-titer Glo reagent based assay; assay type: functional; conditions: HCC827, 96 h
[13] = system: NCI-H1975; test: Growth inhibition of human NCI-H1975 cells expressing EGFR L858R/T790M mutant incubated for 96 hrs by cell-titer Glo reagent based assay; assay type: functional; conditions: NCI-H1975, 96 h
[14] = Kinetic solubility in 50 mM Hepes buffer at pH 7.4; assay type: physicochemical; conditions: read-out: Kinetic_solubility
[15] = Permeability of the compound after 16 hrs assessed as compound flux by PAMPA method; assay type: physicochemical
[16] = Efflux ratio in human Caco2 cells incubated for 2 hrs; assay type: ADME, cell-based; conditions: Caco-2
[17] = target: T1, Epidermal growth factor receptor
[18] = target: T2, Epidermal growth factor receptor
[19] = system: NCI-H661; test: Growth inhibition of human NCI-H661 cells incubated for 96 hrs by cell-titer Glo reagent based assay; assay type: functional; conditions: NCI-H661, 96 h
[20] = system: NCI-H1975; test: Growth inhibition of human NCI-H1975 cells expressing EGFR L858R/T790M mutant at 30 um incubated for 96 hrs by cell-titer Glo reagent based assay; assay type: functional
[21] = target: Proto-oncogene tyrosine-protein kinase Src (Homo sapiens, UniProt P12931); test: Inhibition of wild type cSrc (251 to 533 residues) (unknown origin) pre-incubated for 30 mins before substrate and ATP addition by HTRF assay
[22] = Growth inhibition of human PC9 cells with del1 deletion incubated for 96 hrs by cell-titer Glo reagent based assay; assay type: functional; conditions: PC-9, 96 h

C=CC(=O)Nc1cccc(Oc2nc(Nc3cc(C)[nH]n3)cc(N3CCN(C)CC3)n2)c1
IC50 [1]: > 10 µM | Activity [2]: Active | Activity [3]: Active | IC50 [4]: 0.17 µM | IC50 [5]: 0.028 µM | Ratio IC50 [6]: 5 | Ki [7]: 0.0702 µM | Ki [8]: 0.00064 µM | Kinact [9]: 0.017 min⁻¹ | Kinact [10]: 0.116 min⁻¹ | GI50 [11]: 5.7 µM | GI50 [12]: 8.2 µM | GI50 [13]: 20 µM | solubility kinetic [14]: 432 µM (≈ 188 µg/mL) | permeability [15]: 7% | efflux ratio at 2 h [16]: 32 | IC50 [17]: 0.03 µM | IC50 [18]: 0.5 µM

C=CC(=O)Nc1cccc(Oc2nc(Nc3n[nH]c4ccccc34)cc(N3CCN(C(C)=O)CC3)n2)c1
IC50 [1]: 3.6 µM | GI50 [19]: > 30 µM | GI50 [12]: 25 µM | growth inhibition (GI) [20]: inactive | IC50 [17]: 0.6 µM | IC50 [18]: 0.2 µM

C=CC(=O)Nc1cccc(Oc2nccc(Nc3cc(C)[nH]n3)n2)c1
IC50 [1]: > 10 µM | IC50 [17]: 1.8 µM | IC50 [18]: 0.9 µM

C=CC(=O)Nc1ccccc1-c1nc(Nc2cc[nH]n2)c2ccccc2n1
IC50 [1]: > 10 µM | IC50 [17]: 2.7 µM | IC50 [18]: 1.1 µM

Cc1cc(Nc2cc(N3CCN(C)CC3)nc(Oc3ccc(NC(=O)/C=C/C(F)(F)F)cc3)n2)n[nH]1
IC50 [1]: 2 µM | IC50 [17]: 2.1 µM | IC50 [18]: 1.5 µM

C=CC(=O)Nc1cc(Nc2cc[nH]n2)nc(-c2ccccc2)n1
IC50 [1]: 0.9 µM | Activity [2]: Active | IC50 [17]: 0.8 µM | IC50 [18]: 0.3 µM

CCC(=O)Nc1cccc(Oc2nc(Nc3cc[nH]n3)cc(N3CCN(C)CC3)n2)c1
IC50 [1]: > 10 µM | IC50 [17]: > 10 µM | IC50 [18]: > 10 µM

C=CC(=O)Nc1ccc(Oc2nc(Nc3cc(C)[nH]n3)cc(N3CCN(C)CC3)n2)cc1
IC50 [1]: 3.1 µM | IC50 [17]: 1.8 µM | IC50 [18]: 2.4 µM

C=CC(=O)Nc1ccc2c(Nc3cc[nH]n3)nc(-c3ccccc3)nc2c1
IC50 [1]: > 10 µM | IC50 [21]: 0.211 µM | IC50 [4]: 0.065 µM | IC50 [5]: 0.043 µM | GI50 [11]: 0.7 µM | GI50 [22]: 1.9 µM | GI50 [13]: 1.6 µM | IC50 [17]: 1.9 µM | IC50 [18]: 2.2 µM

C=CC(=O)Nc1cccc(Oc2nc(Nc3cc[nH]n3)cc(N3CCN(C)CC3)n2)c1
IC50 [1]: > 10 µM | IC50 [17]: 2 µM | IC50 [18]: 1.9 µM

CCC(=O)Nc1ccc(-c2nc(Nc3cc[nH]n3)c3ccccc3n2)cc1
IC50 [1]: > 10 µM | IC50 [17]: > 10 µM | IC50 [18]: > 10 µM

CCC(=O)Nc1cccc(Oc2nc(Nc3cc(C)[nH]n3)cc(N3CCN(C)CC3)n2)c1
IC50 [1]: > 10 µM | IC50 [4]: 0.254 µM | IC50 [5]: 0.349 µM | GI50 [11]: 8.4 µM | GI50 [12]: > 30 µM | GI50 [13]: > 30 µM | IC50 [17]: 1.9 µM | IC50 [18]: > 10 µM

C=CC(=O)Nc1cccc(Oc2nc(Nc3n[nH]c4ccc(Br)cc34)cc(N3CCN(C)CC3)n2)c1
IC50 [1]: 2.9 µM | GI50 [19]: 11 µM | GI50 [12]: 8.6 µM | GI50 [13]: 18 µM | IC50 [17]: 0.4 µM | IC50 [18]: 0.3 µM

CCC(=O)Nc1cccc(Oc2nccc(Nc3cc(C)[nH]n3)n2)c1
IC50 [1]: > 10 µM | IC50 [17]: > 10 µM | IC50 [18]: > 10 µM

Cc1cc(Nc2cc(N3CCN(C)CC3)nc(Oc3ccccc3[N+](=O)[O-])n2)n[nH]1
IC50 [1]: > 10 µM | IC50 [17]: 1.9 µM | IC50 [18]: 1.6 µM

CCC(=O)Nc1cccc(-c2nc(Nc3cc[nH]n3)c3ccccc3n2)c1
IC50 [1]: 3.7 µM | IC50 [17]: 1.9 µM | IC50 [18]: 0.4 µM

C=CC(=O)Nc1cccc(Oc2nc(Nc3n[nH]c4ccccc34)cc(N3CCN(C)CC3)n2)c1
IC50 [1]: 1.7 µM | Activity [2]: Active | Activity [3]: Active | IC50 [5]: 0.017 µM | Ki [7]: 0.833 µM | Ki [8]: 0.00032 µM | Kinact [9]: 0.055 min⁻¹ | Kinact [10]: 0.137 min⁻¹ | GI50 [19]: 8.6 µM | GI50 [12]: 2.5 µM | GI50 [13]: 9.8 µM | solubility kinetic [14]: 277 µM (≈ 130 µg/mL) | permeability [15]: 47% | efflux ratio at 2 h [16]: 35 | IC50 [17]: 0.5 µM | IC50 [18]: 0.07 µM

CCC(=O)Nc1ccc2c(Nc3cc[nH]n3)nc(-c3ccccc3)nc2c1
IC50 [1]: > 10 µM | IC50 [21]: 0.336 µM | IC50 [4]: 0.06 µM | IC50 [5]: 0.048 µM | IC50 [17]: 2.1 µM | IC50 [18]: 2.2 µM

C=CC(=O)Nc1cccc(-c2nccc(Nc3cc(C)[nH]n3)n2)c1
IC50 [1]: > 10 µM | IC50 [17]: 2.8 µM | IC50 [18]: 2.5 µM

C=CC(=O)Nc1ccc(-c2nc(Nc3cc[nH]n3)c3ccccc3n2)cc1
IC50 [1]: > 10 µM | IC50 [17]: > 10 µM | IC50 [18]: > 10 µM

CCC(=O)Nc1ccccc1-c1nc(Nc2cc[nH]n2)c2ccccc2n1
IC50 [1]: > 10 µM | IC50 [17]: > 10 µM | IC50 [18]: > 10 µM

CCC(=O)Nc1ccccc1Oc1nc(Nc2cc(C)[nH]n2)cc(N2CCN(C)CC2)n1
IC50 [1]: > 10 µM | IC50 [17]: > 10 µM | IC50 [18]: > 10 µM

C=CC(=O)Nc1cccc(-c2nc(Nc3n[nH]c4ccccc34)cc(N3CCN(C)CC3)n2)c1
IC50 [1]: > 10 µM | GI50 [19]: 12 µM | GI50 [12]: 16 µM | GI50 [13]: 11 µM | IC50 [17]: 5 µM | IC50 [18]: 4.9 µM

C=CC(=O)Nc1ccccc1Oc1nc(Nc2cc(C)[nH]n2)cc(N2CCN(C)CC2)n1
IC50 [1]: 0.9 µM | IC50 [17]: 0.6 µM | IC50 [18]: 2.1 µM

C=CC(=O)Nc1cccc(-c2nc(Nc3cc[nH]n3)c3ccccc3n2)c1
IC50 [1]: 1.1 µM | IC50 [17]: 0.5 µM | IC50 [18]: 0.1 µM

CCC(=O)Nc1cccc(Oc2nc(Nc3n[nH]c4ccccc34)cc(N3CCN(C)CC3)n2)c1
IC50 [1]: > 10 µM | IC50 [5]: 0.26 µM | GI50 [19]: 22 µM | GI50 [12]: > 30 µM | GI50 [13]: 30 µM | IC50 [17]: > 10 µM | IC50 [18]: 8.6 µM

CCC(=O)Nc1cc(Nc2cc[nH]n2)nc(-c2ccccc2)n1
IC50 [1]: > 10 µM | IC50 [17]: 3.4 µM | IC50 [18]: > 10 µM

CN(C)C/C=C/C(=O)Nc1cccc(Oc2nc(Nc3n[nH]c4ccccc34)cc(N3CCN(C)CC3)n2)c1
IC50 [1]: 6.7 µM | GI50 [19]: > 30 µM | GI50 [12]: > 30 µM | growth inhibition (GI) [20]: inactive | IC50 [17]: 3.6 µM | IC50 [18]: 0.7 µM

Cc1cc(Nc2cc(N3CCN(C)CC3)nc(Oc3ccc(N)cc3)n2)n[nH]1
IC50 [1]: > 10 µM | IC50 [17]: 2.1 µM | IC50 [18]: 1.4 µM

C=CC(=O)Nc1cccc(Nc2nc(Nc3ccc(N4CCN(C(C)=O)CC4)cc3OC)ncc2C(F)(F)F)c1 [ROCILETINIB]
GI50 [19]: 1.7 µM | GI50 [12]: 0.03 µM | GI50 [13]: 0.03 µM

Cc1cc(Nc2cc(N3CCN(C)CC3)nc(Oc3ccc([N+](=O)[O-])cc3)n2)n[nH]1
IC50 [1]: > 10 µM | IC50 [17]: 1.8 µM | IC50 [18]: 0.9 µM

CCC(=O)Nc1ccc(Oc2nc(Nc3cc(C)[nH]n3)cc(N3CCN(C)CC3)n2)cc1
IC50 [1]: > 10 µM | IC50 [17]: 1.9 µM | IC50 [18]: 0.7 µM

Cc1cc(Nc2cc(N3CCN(C)CC3)nc(Oc3cccc(N)c3)n2)n[nH]1
IC50 [1]: > 10 µM | GI50 [11]: 20 µM | GI50 [12]: > 30 µM | GI50 [13]: > 30 µM | IC50 [17]: > 10 µM | IC50 [18]: 4.9 µM

Cc1cc(Nc2cc(N3CCN(C)CC3)nc(Oc3cccc([N+](=O)[O-])c3)n2)n[nH]1
IC50 [1]: 3.9 µM | GI50 [11]: 3.5 µM | GI50 [12]: 8.9 µM | GI50 [13]: 6.5 µM | IC50 [17]: 2.3 µM | IC50 [18]: 0.6 µM
